Test results published in patent US7157570B2, “Human ribonucleotide reductase M2 subunit” (priority 2002, dated 2007).

What was measured:
[1] = clinical; design: species or system human; conditions: in vivo
Procedure: Blood sample were collected in heparinized tubes and kept on ice until plasma could be separated by centrifugation (within 30 min). Plasma was transferred to polypropylene tubes containing tetrahydrouridine to inhibit cytidine deaminase and stored at -70° C. until analysis. […] Detection was performed by UV absorbance at 275 nm. […] The inter- and intra-day coefficient of variation across the entire range of the standard curve were <10%, and the accuracies were ±7%. The lower limit of quantification of the assay was 5 ng/ml. […] Data were fitted to a two-compartment model with first-order elimination.

[2] = tested on: KB cells; test: colony-forming assay; assay type: cell-based, human; conditions: drug alone (0.1 mM HU or 0.3 μM Gem)
Procedure: Human oropharyngeal carcinoma KB cells (American Type Culture Collection) were cultured on plastic tissue culture plates in RPMI 1640 supplemented with 10% fetal bovine serum at 37° C. in a humidified atmosphere containing 5% carbon dioxide. […] In all studies, HU was included in the growth medium where indicated at a concentration of 0.1 mM while Gem was provided at a concentration of 0.3 μM.
The colony-forming ability of KB cells treated with HU and/or Gem at varying times was determined. Equal numbers of logarithmically growing cells were treated with HU and/or Gem at the times specified and then plated in 6-well tissue culture dishes as previously described (Zhou et al. (1998) Biochem Pharmaco 55, 1657–1665). The numbers of colonies, consisting of at least 50 cells, for each sample were counted after incubation at 37° C. for 8 generation times.
The colony-forming ability of KB cells treated with HU and/or Gem was assayed using the ID50 concentrations for KB cells. KB cells were exposed to 0.1 mM HU. 0.3 μM Gem was added after 2 to 24 hours of HU treatment, and then cells were assayed for their colony forming ability.

[3] = phase I trial: dose-limiting toxicities and MTD; assay type: in vivo, human; conditions: on days 2 and 9; HU 500 mg every 6 h x4 on days 1 and 8
Procedure: Pregnant female patients were excluded.
Patients received the chemotherapy as outpatients.
Hematologic dose-limiting toxicity (DLT) was defined as a platelet count <75,000/μl on day 8, or a platelet count <25,000/μl lasting seven or more days, an ANC <1,000/μl on day 8 or an ANC <500/μl lasting seven or more days. Hepatic DLT was defined as bilirubin 4.5–6.0 mg/dl or transaminase 8.0–20.0 times normal (grade 3), and bilirubin >6.0 mg/dl or transaminase more than 20.0 times normal (grade 4). Other toxicities were graded according to the NCl Common Toxicity Criteria Version 1.0. Dose escalations and determination of the maximum tolerated dose (MTD) were based on DLT occurring in the first cycle. MTD was defined as the highest dose tested at which none or only one patient experienced DLT when at least six patients were treated at that dose and were evaluable for toxicity. Patients received additional cycles of therapy until unacceptable toxicity required discontinuation of treatment, the patient requested discontinuation, or disease progression occurred.

[4] = tested on: KBGem clone; conditions: cited from earlier work

Structure (SMILES): Nc1ccn([C@@H]2O[C@H](CO)[C@@H](O)C2(F)F)c(=O)n1 [Gemcitabine, gemcitabine]
- t1/2 alpha ([1]; human): 2.4 ± 1.4 min
- variation of CLsys within a single dose level ([1]; human): about 6 fold
- half-life ([1]; human, t1/2 alpha): 2.6 ± 1.9 min
- half-life ([1]; human, t 1/2 alpha, Mean): 2.7 min
- half-life ([1]; human, t1/2 beta): 15.2 ± 5.3 min
- differences in pharmacokinetic parameters between day 2 and day 9 [1]: no significant differences
- effect of administered dose on CLsys [1]: no apparent effect
- colony formation, % of untreated controls [2]: approximately 50%
- MTD for gemcitabine in this combination of drugs [3]: 750 mg/m^2
- increase in resistance (to Gem) [4]: 10 fold
